From article PMC7083565, “In vitro metabolism, reaction phenotyping, enzyme kinetics, CYP inhibition and induction potential of ataluren” (Pharmacology Research & Perspectives, 2020)

How the values were obtained:
CYP2B6 = assay: CYP induction in primary human hepatocytes: CYP2B6; assay type: in vitro ADME; conditions: Bupropion-hydroxylase, 48 hours, n=3
Procedure: Human hepatocytes isolated from three Caucasian males were transferred to 48‐well collagen‐coated plates at 0.14 × 10^6 cells/well in planting media for attachment. After attachment, planting media was replaced with sandwich media and the cells were incubated until clusters were established. […] The incubation solutions were aspirated and replaced with freshly prepared incubation solutions containing ataluren for an additional 24 hours. […] The incubation solutions were then aspirated and 150 µL of K‐H buffer containing CYP substrates were added. The hepatocytes were incubated for 30 minutes for CYP2C8 (10 µmol/L amodiaquine), 1 hour for CYP3A4 (125 µmol/L testosterone), and 4 hours for CYPs 1A2 (100 µmol/L phenacetin), 2A6 (100 µmol/L coumarin), 2B6 (150 µmol/L bupropion), 2C9 (50 µmol/L tolbutamide), 2C19 (100 µmol/L S‐mephenytoin), and 2E1 (300 µmol/L chlorzoxazone) activity assays. The reactions were stopped by the addition of 0.15 mL of ice‐cold methanol except that coumarin‐treated cells were incubated with β‐glucuronidase and aryl sulfatase for additional 1 hour to free 7‐hydroxycoumarin before the addition of 0.2 mL of ice‐cold methanol. Metabolite formation in incubations with test compounds and control inhibitors was assessed with validated LC‐MS/MS methods for each of the reaction products as described in Table S2. Enzymatic activity for each CYP was calculated using the absolute amount of metabolite formed (pmol) divided by hepatocytes in the incubation (million cells) and the incubation time (minute). The relative fold induction in enzymatic activity was calculated by comparing the rate of metabolite formation for treatment groups to that of the solvent control group (reported as vehicle control%) or positive control group (reported as positive control%).

[1] = Steady-state plasma Cmax in DMD patients; assay type: in vivo, human

## O=C(O)c1cccc(-c2noc(-c3ccccc3F)n2)c1 [ataluren, Ataluren]
CYP2B6; ataluren 4 µM
  Positive control %, Mean: 2.81%
  Vehicle control %, Mean: 111%
CYP2B6; ataluren 40 µM
  Positive control %, Mean: 6.27%
  Vehicle control %, Mean: 123%
CYP2B6; ataluren 400 µM
  Positive control %, Mean: 19.8%
  Vehicle control %, Mean: 170%
[1]; conservative, assuming free fraction value of 1%
  free Cmax at the steady state: ~0.80 µM
[1]; using free fraction value of 0.4% as measured
  free Cmax at the steady state: around 0.32 µmol/L
